Key:
[1] = molecular target: T1, Alpha-2C adrenergic receptor (Homo sapiens, UniProt P18825); assay: DRUGMATRIX: Adrenergic Alpha-2C radioligand binding (ligand: [3H] MK-912); format: cell membranes, Sf9, Membrane
T1 sequence (P18825 whole entry): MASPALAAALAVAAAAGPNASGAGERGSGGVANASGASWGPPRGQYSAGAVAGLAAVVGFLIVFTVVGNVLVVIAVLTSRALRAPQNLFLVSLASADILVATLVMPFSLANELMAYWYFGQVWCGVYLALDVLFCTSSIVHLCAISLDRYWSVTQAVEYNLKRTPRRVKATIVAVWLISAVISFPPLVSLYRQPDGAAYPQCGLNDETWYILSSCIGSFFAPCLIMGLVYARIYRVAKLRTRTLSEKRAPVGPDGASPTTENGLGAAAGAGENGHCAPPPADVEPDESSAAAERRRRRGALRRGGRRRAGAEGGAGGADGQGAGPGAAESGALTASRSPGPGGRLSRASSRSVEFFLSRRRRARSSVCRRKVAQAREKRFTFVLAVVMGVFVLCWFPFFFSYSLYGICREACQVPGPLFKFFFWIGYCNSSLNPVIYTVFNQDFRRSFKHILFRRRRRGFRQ

[2] = DRUGMATRIX: ATPase, Na+/K+ enzyme inhibition (substrate: ATP); format: tissue-based, Sus scrofa, Heart; settings: Not Active = under 50% inhibition at 10 µM
[3] = DRUGMATRIX: Sigma2 radioligand binding (ligand: [3H] Ifenprodil); format: cell membranes, Rattus norvegicus, Wistar, Brain, Membrane; settings: Not Active = under 50% inhibition at 10 µM
[4] = DRUGMATRIX: GABAA, Muscimol, Central radioligand binding (ligand: [3H] Muscimol); format: cell membranes, Rattus norvegicus, Wistar, Brain, Membrane; settings: Not Active = under 50% inhibition at 10 µM
[5] = molecular target: Platelet-activating factor receptor (Homo sapiens, UniProt P25105); format: tissue-based; also: in other assays of this panel Not Active means under 50% inhibition at 10 µM
Platelet-activating factor receptor, sequence (P25105 whole entry): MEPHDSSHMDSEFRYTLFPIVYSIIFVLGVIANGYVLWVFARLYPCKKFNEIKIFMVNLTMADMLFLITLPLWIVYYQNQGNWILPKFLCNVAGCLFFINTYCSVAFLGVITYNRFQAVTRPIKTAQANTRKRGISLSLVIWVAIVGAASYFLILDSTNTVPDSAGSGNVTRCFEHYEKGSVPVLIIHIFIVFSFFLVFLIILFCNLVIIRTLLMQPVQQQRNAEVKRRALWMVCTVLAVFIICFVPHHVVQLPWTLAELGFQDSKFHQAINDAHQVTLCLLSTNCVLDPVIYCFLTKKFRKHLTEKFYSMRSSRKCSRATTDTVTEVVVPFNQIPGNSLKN

[6] = molecular target: Mitogen-activated protein kinase 1 (Homo sapiens, UniProt P28482); assay: DRUGMATRIX: Protein Serine/Threonine Kinase, ERK2 enzyme inhibition (substrate: Myelin Basic Protein); set-up: species or system Escherichia coli; settings: Not Active = under 50% inhibition at 10 µM
Mitogen-activated protein kinase 1, sequence (P28482 whole entry): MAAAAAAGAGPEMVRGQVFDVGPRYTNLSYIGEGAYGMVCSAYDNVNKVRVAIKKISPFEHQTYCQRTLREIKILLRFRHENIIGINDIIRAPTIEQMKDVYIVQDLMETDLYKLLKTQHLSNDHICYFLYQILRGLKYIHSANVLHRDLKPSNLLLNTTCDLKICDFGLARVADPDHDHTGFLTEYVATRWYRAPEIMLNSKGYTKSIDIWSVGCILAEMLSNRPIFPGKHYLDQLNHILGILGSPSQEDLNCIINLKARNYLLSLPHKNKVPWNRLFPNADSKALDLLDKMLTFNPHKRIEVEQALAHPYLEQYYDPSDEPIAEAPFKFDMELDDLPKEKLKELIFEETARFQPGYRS

Row | Compound | IC50 ([1]; read-out: IC50) | Ki ([1]; read-out: Ki) | IC50 [2] | Ki [2] | IC50 [3] | Ki [3] | IC50 [4] | Ki [4] | IC50 [5] | IC50 [6] | IC50 ([1]; sf9) | IC50 ([6]; read-out: IC50) | IC50 ([2]; read-out: IC50) | Ki ([1]; sf9) | Ki [5] | Ki [6]
1 | CN1C[C@H](CNC(=O)OCc2ccccc2)C[C@@H]2c3cccc4c3c(cn4C)C[C@H]21 [METERGOLINE] | 189 nM | 27 nM | Not Active | Not Active | Not Active | Not Active | Not Active | Not Active | Not Active | Not Active | – | – | – | – | – | –
2 | CCN(CC)CCNC(=O)c1cc(Cl)c(N)cc1OC [METOCLOPRAMIDE] | – | – | Not Active | Not Active | Not Active | Not Active | Not Active | Not Active | Not Active | Not Active | Not Active | – | – | – | – | –
3 | Cc1ccc(Cl)c(Nc2ccccc2C(=O)O)c1Cl [MECLOFENAMIC ACID] | – | – | Not Active | Not Active | Not Active | Not Active | Not Active | Not Active | Not Active | – | Not Active | 3140 nM | – | – | – | –
4 | CO[C@@]12[C@H](COC(N)=O)C3=C(C(=O)C(C)=C(N)C3=O)N1C[C@@H]1N[C@@H]12 [MITOMYCIN] | – | – | Not Active | Not Active | Not Active | Not Active | Not Active | Not Active | Not Active | Not Active | Not Active | – | – | – | – | –
5 | Cc1[nH]c(=O)c(C#N)cc1-c1ccncc1 [MILRINONE] | – | – | Not Active | Not Active | Not Active | Not Active | Not Active | Not Active | Not Active | Not Active | Not Active | – | – | – | – | –
6 | O=[As][O-].[Na+] [SODIUM ARSENITE] | – | – | Not Active | Not Active | Not Active | Not Active | Not Active | Not Active | Not Active | Not Active | Not Active | – | – | – | – | –
7 | COC(=O)Nc1nc2ccc(C(=O)c3ccccc3)cc2[nH]1 [MEBENDAZOLE] | – | – | Not Active | Not Active | Not Active | Not Active | Not Active | Not Active | Not Active | Not Active | Not Active | – | – | – | – | –
8 | CCOC(=O)C1=C(C)NC(C)=C(C(=O)OCC)C1c1ccccc1/C=C/C(=O)OC(C)(C)C [LACIDIPINE] | – | – | Not Active | Not Active | Not Active | Not Active | Not Active | Not Active | Not Active | Not Active | Not Active | – | – | – | – | –
9 | O=C(OC[C@H]1O[C@@H](OC(=O)c2cc(O)c(O)c(OC(=O)c3cc(O)c(O)c(O)c3)c2)[C@H](OC(=O)c2cc(O)c(O)c(OC(=O)c3cc(O)c(O)c(O)c3)c2)[C@@H](OC(=O)c2cc(O)c(O)c(OC(=O)c3cc(O)c(O)c(O)c3)c2)[C@@H]1OC(=O)c1cc(O)c(O)c(OC(=O)c2cc(O)c(O)c(O)c2)c1)c1cc(O)c(O)c(OC(=O)c2cc(O)c(O)c(O)c2)c1 [TANNIC ACID] | – | – | – | – | Not Active | Not Active | Not Active | Not Active | Not Active | – | Not Active | 185 nM | 1340 nM | – | – | –
10 | CC#C[C@]1(O)CC[C@H]2[C@@H]3CCC4=CC(=O)CCC4=C3[C@@H](c3ccc(N(C)C)cc3)C[C@@]21C [MIFEPRISTONE] | – | – | Not Active | Not Active | Not Active | Not Active | Not Active | Not Active | Not Active | Not Active | Not Active | – | – | – | – | –
11 | CC(O)C(=O)O (centres undefined) [LACTIC ACID] | – | – | Not Active | Not Active | Not Active | Not Active | Not Active | Not Active | Not Active | Not Active | Not Active | – | – | – | – | –
12 | Cc1ccnc(NS(=O)(=O)c2ccc(N)cc2)n1 [SULFAMERAZINE] | – | – | Not Active | Not Active | Not Active | Not Active | Not Active | Not Active | Not Active | Not Active | Not Active | – | – | – | – | –
13 | CC(C)(C)NC[C@H](O)COc1cccc2c1CCCC2=O [LEVOBUNOLOL] | – | – | Not Active | Not Active | Not Active | Not Active | Not Active | Not Active | Not Active | Not Active | Not Active | – | – | – | – | –
14 | CCOc1cc(N)c(Cl)cc1C(=O)NCC1CN(Cc2ccc(F)cc2)CCO1 (centres undefined) [MOSAPRIDE] | – | – | Not Active | Not Active | Not Active | Not Active | Not Active | Not Active | Not Active | Not Active | Not Active | – | – | – | – | –
15 | CC(=O)O[C@]1(C(C)=O)CC[C@H]2[C@@H]3C[C@H](C)C4=CC(=O)CC[C@]4(C)[C@H]3CC[C@@]21C [MEDROXYPROGESTERONE ACETATE] | – | – | Not Active | Not Active | Not Active | Not Active | Not Active | Not Active | Not Active | Not Active | Not Active | – | – | – | – | –
16 | OC[C@@H](O)[C@@H](O)[C@H](O)[C@H](O)CO [MANNITOL] | – | – | Not Active | Not Active | Not Active | Not Active | Not Active | Not Active | Not Active | Not Active | Not Active | – | – | – | – | –
17 | CC(Cl)(Cl)Cl [TRICHLOROETHANE] | – | – | Not Active | Not Active | Not Active | Not Active | Not Active | Not Active | Not Active | Not Active | Not Active | – | – | – | – | –
18 | LEAD(IV) ACETATE | – | – | Not Active | Not Active | Not Active | Not Active | Not Active | Not Active | Not Active | Not Active | Not Active | – | – | Not Active | Not Active | Not Active
19 | O=C(c1ccccc1)c1ccc2n1CCC2C(=O)O (centres undefined) [KETOROLAC] | – | – | Not Active | Not Active | Not Active | Not Active | Not Active | Not Active | Not Active | Not Active | Not Active | – | – | – | – | –
